For 5 molecules, IC50 results are on record in patent US10385047B2, “Histone demethylase inhibitors” (CELGENE QUANTICEL RESEARCH, INC., priority 2014, dated 2019).

The target of one assay is T1, JMJD2C (Homo sapiens, UniProt Q9H3R0).
T1 construct: purchased BPS Bioscience 50105; host or cells: baculovirus expression system (insect cells)
T1 sequence (Q9H3R0 2-372): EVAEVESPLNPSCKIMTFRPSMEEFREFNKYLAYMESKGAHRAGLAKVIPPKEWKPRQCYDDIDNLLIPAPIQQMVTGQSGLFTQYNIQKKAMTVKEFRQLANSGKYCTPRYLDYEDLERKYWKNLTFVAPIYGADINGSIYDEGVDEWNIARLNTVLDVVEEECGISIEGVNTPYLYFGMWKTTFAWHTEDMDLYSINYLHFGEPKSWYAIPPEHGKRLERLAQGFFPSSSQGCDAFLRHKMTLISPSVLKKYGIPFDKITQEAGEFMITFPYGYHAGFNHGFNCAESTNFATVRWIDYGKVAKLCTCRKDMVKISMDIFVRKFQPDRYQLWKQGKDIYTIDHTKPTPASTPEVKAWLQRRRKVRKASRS
Put plainly: In vitro enzyme inhibition assay for JMJD2C activity (TR-FRET). It is filed as biochemical. The method, then: This assay determines the ability of a test compound to inhibit JMJD2C demethylase activity. Baculovirus expressed JMJD2C (GenBank Accession #BC143571, AA 2-372) was purchased from BPS Bioscience (Cat#50105).
The ability of test compounds to inhibit the activity of JMJD2C was determined in 384-well plate format under the following reaction conditions: 0.3 nM JMJD2C, 300 nM H3K9me3-biotin labeled peptide (Anaspec cat #64360), 2 μM alpha-ketoglutaric acid in assay buffer of 50 mM HEPES, pH7.3, 0.005% Brij35, 0.5 mM TCEP, 0.2 mg/ml BSA, 50 μM sodium L-ascorbate, and 2 μM ammonium iron(II) sulfate. Reaction product was determined quantitatively by TR-FRET after the addition of detection reagent Phycolink Streptavidin-allophycocyanin (Prozyme) and Europium-anti-di-methylated histone H3 lysine 9 (H3K9me2) antibody (PerkinElmer) in the presence of 5 mM EDTA in LANCE detection buffer (PerkinElmer) at a final concentration of 50 nM and 1 nM, respectively.
The assay reaction was initiated by the following: 2 μl of the mixture of 900 nM H3K9me3-biotin labeled peptide and 6 μM alpha-ketoglutaric acid with 2 μl of 11-point serial diluted inhibitor in 3% DMSO were added to each well of the plate, followed by the addition of 2 μl of 0.9 nM JMJD2C to initiate the reaction. The reaction mixture was incubated at room temperature for 30 minutes, and terminated by the addition of 6 μl of 5 mM EDTA in LANCE detection buffer containing 100 nM Phycolink Streptavidin-allophycocyanin and 2 nM Europium-anti-H3K9me2 antibody. Plates were read by EnVisionMultilabel Reader in TR-FRET mode (excitation at 320 nm, emission at 615 nm and 665 nm) after 1 hour incubation at room temperature. A ratio was calculated (665/615) for each well and fitted to determine inhibition constant (IC50).

The next assay has as its target T2, JMJD3 (Homo sapiens, UniProt O15054).
T2 construct: purchased BPS Bioscience 50115; host or cells: baculovirus expression system (insect cells)
Put plainly: In vitro enzyme inhibition assay for JMJD3 activity (TR-FRET). To be noted: enzymatic assay conditions described herein. The class given is biochemical. The method, then:
This assay determines the ability of a test compound to inhibit JMJD3 demethylase activity. Baculovirus expressed JMJD3 (GenBank Accession #NM-001080424, AA1043-end) was purchased from BPS Bioscience (Cat#50115).
The enzymatic assay of JMJD3 activity is based upon Time Resolved-Fluorescence Resonance Energy Transfer (TR-FRET) detection. […] Reaction product was determined quantitatively by TR-FRET after the addition of detection reagent Phycolink Streptavidin-allophycocyanin (Prozyme) and Europium-anti-di-methylated histone H3 lysine 27 (H3K27me2) antibody (PerkinElmer) in the presence of 5 mM EDTA in LANCE detection buffer (PerkinElmer) at a final concentration of 50 nM and 1 nM, respectively.
The reaction mixture was incubated at room temperature for 30 minutes, and terminated by the addition of 6 μL of 5 mM EDTA in LANCE detection buffer containing 100 nM Phycolink Streptavidin-allophycocyanin and 2 nM Europium-anti-H3K27me2 antibody. Plates were read by EnVisionMultilabel Reader in TR-FRET mode (excitation at 320 nm, emission at 615 nm and 665 nm) after 1 hour incubation at room temperature. A ratio from the readout of 665/615 was calculated for each well and fitted to determine inhibition constant (IC50).

[1] abbreviates: 0.3 nM JMJD2C, H3K9me3-biotin peptide, 2 μM alpha-ketoglutaric acid.
The mark [2] stands for this setting: enzymatic assay conditions described herein.

T2 sequence (O15054 1043-1682 isoform O15054-1): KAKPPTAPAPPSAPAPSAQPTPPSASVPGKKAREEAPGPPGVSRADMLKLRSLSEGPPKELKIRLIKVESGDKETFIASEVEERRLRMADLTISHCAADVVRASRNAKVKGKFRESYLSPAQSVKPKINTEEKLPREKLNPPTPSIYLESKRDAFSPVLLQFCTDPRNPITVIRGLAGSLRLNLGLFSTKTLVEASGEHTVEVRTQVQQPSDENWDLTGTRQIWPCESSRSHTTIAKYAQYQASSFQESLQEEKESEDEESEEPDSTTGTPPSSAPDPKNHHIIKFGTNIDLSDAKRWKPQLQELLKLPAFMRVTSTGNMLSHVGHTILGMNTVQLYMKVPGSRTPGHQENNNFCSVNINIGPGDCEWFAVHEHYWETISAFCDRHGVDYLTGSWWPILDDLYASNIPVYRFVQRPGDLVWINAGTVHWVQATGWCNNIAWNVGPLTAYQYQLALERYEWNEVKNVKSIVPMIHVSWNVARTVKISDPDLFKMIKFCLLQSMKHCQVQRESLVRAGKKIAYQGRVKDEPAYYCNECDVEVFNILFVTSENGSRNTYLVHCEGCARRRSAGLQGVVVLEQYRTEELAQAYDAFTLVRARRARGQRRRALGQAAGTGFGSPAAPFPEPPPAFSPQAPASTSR

On JMJD2C (setting [1]), `C[C@H](O)c1ccc(N(C)c2ccc3c(c2)CCC[C@H]3CNc2cnccc2C(=O)O)cc1` (single isomer, unassigned) [Example 169] registered an IC50 of 100 to 1000 nM.
For the molecule `O=C(O)c1ccncc1NC[C@@H]1CCOc2cc(-c3ccccc3)ccc21` [Example 84 of U.S. Pat. No. 8,952,151, 3-({[(4R)-7-phenyl-3,4-dihydro-2H-1-benzopyran-4-yl]methyl}amino)pyridine-4-carboxylic acid], the IC50 was found to be 2150 nM at JMJD3 and 150 nM against JMJD2C (setting [2]).
`O=C(O)c1ccncc1NC[C@@H]1CCOc2cc(C3CCCCC3)ccc21` [Example 35, 3-({[(4R)-7-cyclohexyl-3,4-dihydro-2H-1-benzopyran-4-yl]methyl}amino)pyridine-4-carboxylic Acid] displayed an IC50 against JMJD2C (setting [1]) of 100 to 1000 nM.
Regarding `O=C(O)c1ccncc1NC[C@H]1CCOc2cc(-c3ccccc3)ccc21` [Example 83 of U.S. Pat. No. 8,952,151, 3-({[(4S)-7-phenyl-3,4-dihydro-2H-1-benzopyran-4-yl]methyl}amino)pyridine-4-carboxylic acid], the IC50 against JMJD3 came to 19 nM; at JMJD2C (setting [2]), 950 nM.
The molecule `C[C@@H](O)c1ccc(N(C)c2ccc3c(c2)CCC[C@H]3CNc2cnccc2C(=O)O)cc1` (single isomer, unassigned) [Example 168] registered an IC50 against JMJD2C (setting [1]) of 100 to 1000 nM.
